Source: patent US20250195393A1, “COSMETIC COMPOSITION COMPRISING SKIN ACTIVE AGENT” (priority 2023, published 2025)
Where two headings read alike, the source gives them in different places.

What was measured:
[1] = Hansen Solubility Parameters; cited from earlier work
[2] = Hansen Solubility Parameters (D, P, H) and distance Ra of solvents (b)
From the text: The oil phase of the emulsion includes the hydrophobic polymer of (a) dissolved in one or more solvents capable of solubilizing the hydrophobic polymer. The one or more solvent may include one or more solvents used to generate or solubilize the hydrophobic polymer, e.g., 2,2,4-trimethyl-1,3-pentanediol-monoisobutyrate. The one or more solvents may be a single solvent or a plurality of solvents.
[formula] • wherein • D1 is 16.8 MPa^0.5, • P1 is 4.8 MPa^0.5, and • H1 is 13.0 MPa^0.5.
In a preferred embodiment, the one or more solvents have a dispersion component (D), a polar component (P), a hydrogen bonding component (H), and a distance (Ra) of less than or equal to 9.9 MPa^0.5 per Hansen Solubility Parameters, wherein the distance (Ra) is defined by formula (I):
[formula] • wherein • D1 is 16.4 MPa^0.5, • P1 is 5.0 MPa^0.5, and • H1 is 11.7 MPa^0.5.
The solvent may be an oil. The term “oil” is intended to mean a non-aqueous compound, non-miscible in water, and liquid at 25° C. and atmospheric pressure (760 mmHg; 1.013×10^5 Pa). […] The solvents may include acetone. The solvents may include oleic acid. The solvents may include an oleic acid containing oil (such as a vegetable oil).

| SMILES | D (dispersion component) [1] [MPa^0.5] | H (hydrogen bonding component) [1] [MPa^0.5] | P (polar component) [1] [MPa^0.5] | Ra (Preferred Range) ([2]; distance per formula (I) with D1 16.4, P1 5.0, H1 11.7, preferred <= 9.9) [MPa^0.5] | Ra (Allowable Range) ([2]; distance per formula (I) with D1 16.8, P1 4.8, H1 13.0, allowable <= 13.4) [MPa^0.5] | Ra (Allowable Range) [2] [MPa^0.5] | Ra (Preferred Range) [2] [MPa^0.5] |
| --- | --- | --- | --- | --- | --- | --- | --- |
| CC(C)=O [Acetone] | 15.5 | 7 | 10.4 | 7.38 | 8.61 | – | – |
| CCO [Ethanol] | 15.8 | 19.4 | 8.8 | – | – | 7.81 | 8.67 |
| CC(C)O [Isopropyl Alcohol] | 15.8 | 6.4 | 6.1 | – | – | 7.02 | 5.54 |
| CCCCCCCCCCCCCC(=O)OC(C)C [Isopropyl Myristate] | 15.9 | 2.8 | 2.1 | – | – | 10.70 | 9.41 |
| CCCCCCCCCCC(CO)CCCCCCCC (centres unmarked) [Octyldodecanol] | 16.1 | 7.4 | 2.2 | – | – | 6.33 | 5.17 |
| CCCCCCCC/C=C\CCCCCCCC(=O)O [Oleic Acid] | 16 | 6.2 | 2.8 | – | – | 7.27 | 5.98 |
| OCCOc1ccccc1 [Phenoxyethanol] | – | – | – | – | – | 2.55 | 3.88 |
